Reference: patent US7511123B2, “Immuno-interactive fragments of the alpha-C subunit of inhibin” (Prince Henry's Institute of Medical Research, priority 1999, dated 2009)

Legend:
As#41 = assay: Sandwich assay with As#41 as both coating and labeled antibody, no inhibin; assay type: binding, sheep; conditions: peptide added to both coating and labeled As#41
Description: It has not been established if the same antibodies are present in As #128.

As #128 [1] = assay: Solid phase assay (Assay 1): biotinylated peptides binding to As #128; design: species or system sheep; key: +++++ major contribution; + minor contribution; conditions: relative contribution
In short: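 The 31 biotinylated peptides were captured on streptavidin-coated wells for 2 h at room temperature, then incubated with ovine antiserum #41 or #128 for 2 h at room temperature. Bound antiserum was detected with HRP-labelled anti-ovine IgG and a colorimetric substrate read spectrophotometrically; the signal is proportional to peptide binding.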

As #128 [2] = assay: Two-site assay design: peptides pre-incubated with As #128 coated plate; assay type: binding, sheep; conditions: non-biotinylated peptides 0.1-1 micromolar
Procedure: On the other hand, the IFMA design is based on the total amount of inhibin bound which is a combination of both antibody affinity and concentration. In order to establish to what extent epitopes to these peptides contribute to the overall IFMA, the following two-site assay designs were used.
(i) Peptides #5, #20 and #30 (0, 0.1-1 micromolar) were incubated with the As #128 coated plate for 1.5 hours at RT and the wells washed. The highest dose of peptide used was saturating.
(ii) Hr-Inhibin was then added as a saturating or near saturating dose to the As #128 coated plate and incubated for 2 hours at room temperature and the plate washed.
(iii) Biotinylated As #41 was added to the above wells and incubated for 2 hours at RT. Plates were then washed and counted.

As #128 [3] = assay: RIA (Assay 2): competition with iodinated inhibin for As #128; assay type: binding, sheep
In short: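 Graded doses of peptide or hr-inhibin standard competed with iodinated human recombinant 30 kDa inhibin tracer for the sheep antiserum at a set dilution, overnight at 4°C. Bound tracer was precipitated with goat anti-sheep IgG and gamma-counted. ED50 is the dose producing 50% loss of tracer binding.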

As #1989 = assay: RIA (Assay 2): competition with iodinated inhibin for As #1989; assay type: binding, rabbit
In short: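 Radioimmunoassay measuring how well peptides compete with iodinated 30 kDa human recombinant inhibin tracer for binding to antiserum #1989. Graded doses of peptide, iodinated inhibin and diluted antiserum were incubated overnight at 4° C. Antibody-bound tracer was precipitated with goat anti-sheep IgG serum and counted in a gamma counter. The ED50, the peptide concentration halving tracer binding, indicated affinity.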

[4] = biotinylated peptides, 50% fall in binding of iodinated inhibin
[5] = non-biotinylated peptides, hr-inhibin A as standard

binding in the absence of inhibin (As#41): significant binding | #128 Antibody screen Assay 1 (As #128 [1]): + | suppression in binding with As #128 (As #128 [2]): 65%
Substance: SGSG WSPSALRLLQRPPE [Peptide 5]
As#128 ED50 (As #128 [3]; [4]): 3.8 µM | ED50 values As#128 (As #128 [3]; [5]): >10 µM | As#1989 ED50 (As #1989; [4]): >2.5 µM | ED50 values As#1989 (As #1989; [5]): >10 µM
